Reference: ChEMBL document CHEMBL1201862, “PubChem BioAssay data set” (2004)
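48-hour exposure; five concentrations; linearly interpolated endpoints. At the GI50, growth is halved.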 Activity calls are given as the source filed them. Rule as the data show it: active = GI50 up to about 1.1 µM and inactive = higher.

Legend:
Assay in all cases: growth of human tumour cells (NCI), 48 h
M19-MEL = system: M19-MEL
U-251 = system: U-251
RXF 393 = system: RXF 393
KM12 = system: KM12
DMS-273 = system: DMS-273
DLD-1 = system: DLD-1
SK-OV-3 = system: SK-OV-3
CCRF-CEM = system: CCRF-CEM
Malme-3M = system: Malme-3M
UO-31 = system: UO-31
UACC-257 = system: UACC-257
SNB-78 = system: SNB-78
RXF 631 = system: RXF 631
SK-MEL-28 = system: SK-MEL-28
SNB-75 = system: SNB-75
HL-60 = system: HL-60
EKVX = system: EKVX
LOX IMVI = system: LOX IMVI
UACC-62 = system: UACC-62
LXFL 529 = system: LXFL 529
HCT-116 = system: HCT-116
HOP-18 = system: HOP-18
HOP-92 = system: HOP-92
MOLT-4 = system: MOLT-4
ACHN = system: ACHN
HCT-15 = system: HCT-15
SW-620 = system: SW-620
HCC 2998 = system: HCC 2998
OVCAR-4 = system: OVCAR-4
SN12C = system: SN12C
IGROV-1 = system: IGROV-1
NCI-H460 = system: NCI-H460
A549 = system: A549
HOP-62 = system: HOP-62
SK-MEL-5 = system: SK-MEL-5
M14 = system: M14
TK-10 = system: TK-10
SF-295 = system: SF-295
OVCAR-3 = system: OVCAR-3
CAKI-1 = system: CAKI-1
HT-29 = system: HT-29
OVCAR-8 = system: OVCAR-8
COLO 205 = system: COLO 205
K562 = system: K562
786-0 = system: 786-0
OVCAR-5 = system: OVCAR-5
XF498 = system: XF498
KM-20L2 = system: KM-20L2
SK-MEL-2 = system: SK-MEL-2
RPMI-8226 = system: RPMI-8226
NCI-H226 = system: NCI-H226
SF-268 = system: SF-268
DMS-114 = system: DMS-114
NCI-H522 = system: NCI-H522
SR = system: SR
A498 = system: A498
SNB-19 = system: SNB-19
SF-539 = system: SF-539
NCI-H23 = system: NCI-H23

In the case of `N#Cc1c(-c2ccc(Cl)c(Cl)c2)c(-c2ccc(Cl)c(Cl)c2)nn(CC(=O)O)c1=O`, the GI50 (M19-MEL) was > 100 µM (inactive), the GI50 (U-251) was 32.1 µM (inactive) and the GI50 (RXF 393) was 20.1 µM (inactive). The GI50 (KM12) was 43.7 µM (inactive), the GI50 (DMS-273) was 44.7 µM (inactive) and the GI50 (DLD-1) was 63.5 µM (inactive). For the same compound, the GI50 (SK-OV-3) was > 100 µM (inactive), the GI50 (CCRF-CEM) was 48.2 µM (inactive) and the GI50 (Malme-3M) was > 100 µM (inactive). For the same compound, the GI50 (UO-31) was 57.8 µM (inactive), the GI50 (UACC-257) was 66.2 µM (inactive) and the GI50 (SNB-78) was > 100 µM (inactive). The GI50 (RXF 631) was 64.9 µM (inactive), the GI50 (SK-MEL-28) was 75.2 µM (inactive) and the GI50 (SNB-75) was 30.5 µM (inactive). For the same compound, the GI50 (HL-60) was 43.1 µM (inactive), the GI50 (EKVX) was > 100 µM (inactive) and the GI50 (LOX IMVI) was 41.3 µM (inactive). For the same compound, the GI50 (UACC-62) was > 100 µM (inactive), the GI50 (LXFL 529) was 72.4 µM (inactive) and the GI50 (HCT-116) was 41.5 µM (inactive). For the same compound, the GI50 (HOP-18) was 64.3 µM (inactive), the GI50 (HOP-92) was > 100 µM (inactive) and the GI50 (MOLT-4) was 68.4 µM (inactive). The GI50 (ACHN) was 61.5 µM (inactive), the GI50 (HCT-15) was 28.2 µM and the GI50 (SW-620) was 53.6 µM (inactive). For the same compound, the GI50 (HCC 2998) was 52.2 µM (inactive), the GI50 (OVCAR-4) was > 100 µM (inactive) and the GI50 (SN12C) was 51.3 µM (inactive). For the same compound, the GI50 (IGROV-1) was > 100 µM (inactive), the GI50 (NCI-H460) was 36.9 µM (inactive) and the GI50 (A549) was 87.7 µM (inactive). For the same compound, the GI50 (HOP-62) was > 100 µM (inactive), the GI50 (SK-MEL-5) was 34.7 µM (inactive) and the GI50 (M14) was 99.8 µM (inactive). For the same compound, the GI50 (TK-10) was > 100 µM (inactive), the GI50 (SF-295) was 48.6 µM (inactive) and the GI50 (OVCAR-3) was 27.2 µM (inactive). The GI50 (CAKI-1) was 38.5 µM (inactive), the GI50 (HT-29) was 33.3 µM (inactive) and the GI50 (OVCAR-8) was 57 µM (inactive). The GI50 (COLO 205) was 71.4 µM (inactive), the GI50 (K562) was 43.9 µM (inactive) and the GI50 (786-0) was > 100 µM (inactive). For the same compound, the GI50 (OVCAR-5) was > 100 µM (inactive), the GI50 (XF498) was 27.9 µM (inactive) and the GI50 (KM-20L2) was 24.2 µM (inactive). For the same compound, the GI50 (SK-MEL-2) was > 100 µM (inactive), the GI50 (RPMI-8226) was 79.4 µM (inactive) and the GI50 (NCI-H226) was 24 µM (inactive).
For `NC(=O)OCC(COc1ccc(Cl)cc1)OC(=O)c1ccccc1Cl` (configuration not stated), the GI50 (SF-268) was 24.8 µM (inactive), the GI50 (U-251) was 14.1 µM (inactive) and the GI50 (RXF 393) was 12.6 µM (inactive). For the same compound, the GI50 (KM12) was 21.6 µM (inactive), the GI50 (DMS-273) was 20.5 µM (inactive) and the GI50 (DLD-1) was 18.5 µM (inactive). The GI50 (SK-OV-3) was > 100 µM (inactive), the GI50 (CCRF-CEM) was 22.3 µM (inactive) and the GI50 (Malme-3M) was 20.3 µM (inactive). The GI50 (UO-31) was 22.3 µM (inactive), the GI50 (UACC-257) was 19 µM (inactive) and the GI50 (SNB-78) was 36.1 µM (inactive). For the same compound, the GI50 (RXF 631) was 20.3 µM (inactive), the GI50 (SK-MEL-28) was 18.6 µM (inactive) and the GI50 (SNB-75) was 41.7 µM (inactive). The GI50 (HL-60) was 21.9 µM (inactive), the GI50 (DMS-114) was 14.6 µM (inactive) and the GI50 (EKVX) was 25.4 µM (inactive). For the same compound, the GI50 (LOX IMVI) was 13.8 µM (inactive), the GI50 (UACC-62) was 17.2 µM (inactive) and the GI50 (LXFL 529) was 24.1 µM (inactive). For the same compound, the GI50 (HCT-116) was 17 µM (inactive), the GI50 (HOP-18) was 26.1 µM (inactive) and the GI50 (HOP-92) was 17.1 µM (inactive). The GI50 (MOLT-4) was 21 µM (inactive), the GI50 (ACHN) was 31.6 µM (inactive) and the GI50 (HCT-15) was 16.4 µM. The GI50 (SW-620) was 19 µM (inactive), the GI50 (NCI-H522) was 16.9 µM (inactive) and the GI50 (HCC 2998) was 23.8 µM (inactive). For the same compound, the GI50 (SR) was 25.6 µM (inactive), the GI50 (SN12C) was 16.6 µM (inactive) and the GI50 (IGROV-1) was 25.5 µM (inactive). For the same compound, the GI50 (NCI-H460) was 16.8 µM (inactive), the GI50 (A549) was 27.8 µM (inactive) and the GI50 (HOP-62) was 20.9 µM (inactive). For the same compound, the GI50 (SK-MEL-5) was 19.1 µM (inactive), the GI50 (M14) was 18.7 µM (inactive) and the GI50 (TK-10) was 28.8 µM (inactive). For the same compound, the GI50 (SF-295) was 25.4 µM (inactive), the GI50 (OVCAR-3) was 20.3 µM (inactive) and the GI50 (CAKI-1) was 26.5 µM (inactive). For the same compound, the GI50 (HT-29) was 17.6 µM (inactive), the GI50 (OVCAR-8) was 23.4 µM (inactive) and the GI50 (A498) was > 100 µM (inactive). The GI50 (SNB-19) was 28.1 µM (inactive), the GI50 (COLO 205) was 17.5 µM (inactive) and the GI50 (K562) was 20.7 µM (inactive). The GI50 (786-0) was 19.4 µM (inactive), the GI50 (OVCAR-5) was 20.6 µM (inactive) and the GI50 (SF-539) was 19.1 µM (inactive). For the same compound, the GI50 (KM-20L2) was 19.3 µM (inactive), the GI50 (NCI-H23) was 20.5 µM (inactive) and the GI50 (SK-MEL-2) was 17.3 µM (inactive). The GI50 (RPMI-8226) was 21.8 µM (inactive) and the GI50 (NCI-H226) was 25.1 µM (inactive).
